We go through one molecule from publication PMC7956564, “Porphyromonas gingivalis HmuY and Bacteroides vulgatus Bvu—A Novel Competitive Heme Acquisition Strategy” (International Journal of Molecular Sciences, 2021).

For this experiment, the target named is T1, Bvu (Phocaeicola vulgatus, UniProt A6L2D9).
T1 construct: gene BVU_2192
Kind of experiment: biochemical.

pKd: −log10 of the molar value.

T1 sequence (A6L2D9 entry or part of it): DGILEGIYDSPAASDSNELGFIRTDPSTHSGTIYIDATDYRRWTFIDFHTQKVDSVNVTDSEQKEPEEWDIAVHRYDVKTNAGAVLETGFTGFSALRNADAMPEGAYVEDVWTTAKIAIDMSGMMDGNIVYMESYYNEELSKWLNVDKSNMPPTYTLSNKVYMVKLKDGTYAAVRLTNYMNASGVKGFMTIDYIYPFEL

As a reminder, the pKd is the Kd on a negative log10 scale, so that one unit is a factor of ten. `C=CC1=C(C)C2=Cc3c(C=C)c(C)c4[n]3[Fe][n]3c(c(C)c(CCC(=O)O)c3=CC3=NC(=C4)C(C)=C3CCC(=O)O)=CC1=N2` [Fe(II)heme]: the pKd was 8.80.
